Values after ≈ are worked out from the molar mass of the structure shown. Where two headings read alike, the source gives them in different places. Non-standard residues stand in square brackets, D forms with d. Residues, ends and D or L forms follow the SMILES beside them. Orn = NCCC[C@H](N)C(=O)O
Columns and labels:
[1] = 3T3 NRU cytotoxicity/phototoxicity test; format: cell-based, mouse; settings: mouse
Experimental: (§1) The cell lines BALB 3T3 (mouse embryonic fibroblasts) and MCF-12F (human breast epithelial cells) were used as models for healthy tissue. The MCF-7 and MDA-MB-231 cell lines were used as in vitro models for luminal A- and basal B-type breast cancer, respectively. Cell lines were obtained from the American Type Cultures Collection (ATCC, Manassas, VA, USA). Cells were cultured in Dulbecco modified Eagle’s medium (DMEM) supplemented with 10% fetal bovine serum (FBS), 100 U/mL penicillin, and 0.1 mg/mL streptomycin (Sigma-Aldrich, Schnelldorf, Germany) in an incubator at 37 °C, 5% CO2 and 95% humidity. Plastic flasks 75 cm^2 (Biologix, Lenexa, KS, USA) were used to grow the cells.
(§2) The cytotoxicity/phototoxicity testing was performed as described by the OECD Guidelines for the Testing of Chemicals, Section 4, Test No. 432: In Vitro 3T3 NRU Phototoxicity Test. BALB 3T3, clone A31 cells were grown in 75 cm^2 tissue culture flasks in DMEM high-glucose (4.5 g/L), 10% FBS, and antibiotics at 37.5 °C, in a humidified atmosphere under 5% CO2. Cells were plated at 1 × 10^4 cells / 100 μL culture medium in each well of 96-well microplates and allowed to adhere for 24 h before treatment with test compounds. Peptides were dissolved in DMSO and diluted with culture medium to working concentrations from 4 to 1000 μM. In phototoxicity tests, 96-well plates were irradiated (+Irr) with a dose of 2.4 J/cm^2 using an artificial solar light simulator Helios-iO (SERIC Ltd., Tokyo, Japan), and the cells were incubated for an additional 24 h. After treatment with a Neutral Red medium, washing, and application of the NR Desorb solution, the absorption was measured on a microplate reader at a wavelength of 540 nm. Cytotoxicity/phototoxicity was expressed as CC50 values (concentrations required for 50% cytotoxicity).

[2] = test system: BALB 3T3 clone A31 cells; experiment: 3T3 NRU cytotoxicity/phototoxicity test; format: cell-based, mouse
Experimental: as §1, §2

[3] = test system: MCF-12F cells; experiment: MTT antiproliferative assay, MCF-12F; format: cell-based, human; settings: 72 h, non-tumorigenic cell line, read-out: Mean IC50 ± SD, MCF-12F
Experimental: as §1
(§3) The antiproliferative activity testing was performed on cell cultures using the MTT-dye reduction assay. This assay is based on the metabolism of MTT to insoluble formazan by mitochondrial reductases. The formazan concentration can be determined spectrophotometrically. The measured absorption is an indicator of cell viability. Cell lines (MCF-12F, MCF-7 and MDA-MB-231) were used in the experiments. Cells were plated at a density of 1 × 10^3 cells/100 µL in each well of 96-well microplates and allowed to adhere for 24 h before treatment with test compounds. A concentration range from 4 to 1000 μM was applied for 72 h. The formazan absorption was registered using a microplate reader at λ = 540 nm. Antiproliferative activities were expressed as IC50 values (concentrations required for 50% inhibition of cell growth).

[4] = test system: MCF-7 cells; experiment: MTT antiproliferative assay, MCF-7; format: cell-based, human; settings: for IC50: MTT, 72 h, read-out: Mean IC50 ± SD, MCF-7; for SI (Selectivity Index), MCF-7: SI = IC50 MCF-12F/IC50 tumor cells
Experimental: as §1, §3

[5] = test system: MDA-MB-231 cells; experiment: MTT antiproliferative assay, MDA-MB-231; format: cell-based, human; settings: for IC50: MTT, 72 h, read-out: Mean IC50 ± SD, MDA-MB-231; for SI (Selectivity Index), MDA-MB-231: SI = IC50 MCF-12F/IC50 tumor cells
Experimental: as §1, §3

[6] = test system: Arthrobacter oxydans NBIMCC 9333; format: cell-based; settings: 24 h
Experimental: (§4) The parent peptide Temporin A and the novel analogs were subjected to tests against model strains Escherichia coli NBIMCC 8785, Bacillus subtilis NBIMCC 3562, Arthrobacter oxydans NBIMCC 9333, Pseudomonas aeruginosa NBIMCC 3700, and Candida albicans NBIMCC 74, for the assessment of their antimicrobial activity. The strains were acquired from the National Bank for Industrial Microorganisms and Cell Cultures (NBIMCC, Bulgaria). The strain E. coli 8785 was cultured in Luria-Bertani broth (LB, HiMedia, Mumbai, India); B. subtilis 3562—in nutrient broth (NB, HiMedia, Mumbai, India); A. oxydans 9333; P. aeruginosa 3700—in meat peptone agar (MPA) medium; and C. albicans 74—in yeast mold (YM) medium. An incubator shaker ES-20/60 (Biosan, Latvia) was used for the cultivation and was set to 30 °C for B. subtilis 3562, A. oxydans 9333, and C. albicans 74; and 37 °C for E. coli 8785 and P. aeruginosa 3700, with a 24 h shaking period at 120 rpm. The microbial cultures were then adjusted to a turbidity of 0.5 McFarland using a Grant-bio DEN-1B densitometer (Grant Instruments, Royston, UK) for further use.
(§5) The minimal inhibitory concentration (MIC) of the peptides was determined using the broth dilution method. Stock solutions of the peptides with a concentration of 10 mg/mL in 10% EtOH/H2O were prepared. Suspensions of the bacteria in the corresponding media were added to 96-well U-shaped bottom polystyrene plates (Deltalab S.L., Spain) and exposed to the peptide in the concentration range from 0 to 320 µg/mL, and a 10% EtOH/H2O control, diluted using the same scheme as the peptides, was also used. The plates were then incubated under aerobic conditions at the corresponding temperature for 24 h. The MIC (µg/mL) was assumed as the lowest concentration of the antimicrobial, where there was visible inhibition of the strain. The absorbance was measured at 630 nm (Microplate reader PKL PPC 142, Paramedical srl, Salerno, Italy). To determine the minimal bactericidal concentration (MBC) and minimal fungicidal concentration (MFC), 10 μL from concentrations greater than or equal to the MIC was placed on the corresponding solid nutrient medium. The Petri dishes were then incubated at 30 or 37 °C for 24 h. All experiments were conducted in a triplicate.

[7] = test system: Bacillus subtilis NBIMCC 3562; format: cell-based
Experimental: as §4, §5

[8] = test system: Candida albicans NBIMCC 74; format: cell-based; settings: NBIMCC 74, 24 h
Experimental: as §4, §5

[9] = test system: Escherichia coli NBIMCC 8785; format: cell-based; settings: NBIMCC 8785, 24 h
Experimental: as §4, §5

[10] = test system: Pseudomonas aeruginosa NBIMCC 3700; format: cell-based; settings: NBIMCC 3700, 24 h
Experimental: as §4, §5

[11] = test system: Arthrobacter oxydans NBIMCC 9333; format: cell-based; settings: for Inhibition effect, A. oxydans 9333: zone of peptide over zone of antibiotic x 100; for Inhibition zone, A. oxydans 9333: 20 µL per disc, 24 h
Experimental: as §4
(§6) The disk-diffusion method was used as an additional method, with the aim of determining the percent inhibition of the tested samples against the model strains. Sterile plates with LB/NB/MPA/YM agar medium were inoculated on the surface with 100 μL from each microbial culture and incubated at 30 or 37 °C for 30 min, for the suspension to penetrate the agar. After that, sterile paper discs (HiMedia, Mumbai, India) with a diameter of 6 mm were soaked with 20 µL of the peptide solutions with concentrations of 1.4 mg/mL and 10 mg/mL and placed on the agar surface. Sterile paper discs with 10% EtOH/H2O were used as a negative control, and the corresponding strain antibiotic disks (HiMedia, Mumbai, India)—as a positive control. The incubation of the plate was performed at 30/37 °C for 24 h. The antimicrobial activity was analyzed by measuring the diameter of the inhibition zones in mm. The experiments were conducted in triplicates, and the average values for the percent of inhibition as a correlation between the inhibition zone of the peptides over the inhibition zone of the antibiotic multiplied by 100 were calculated.

[12] = test system: Bacillus subtilis NBIMCC 3562; format: cell-based; settings: for Inhibition effect, B. subtilis 3562: zone of peptide over zone of antibiotic x 100; for Inhibition zone, B. subtilis 3562: 20 µL per disc, 24 h
Experimental: as §4, §6

[13] = test system: Candida albicans NBIMCC 74; format: cell-based; settings: 20 µL per disc, 24 h
Experimental: as §4, §6

[14] = test system: Escherichia coli NBIMCC 8785; format: cell-based; settings: 20 µL per disc, 24 h
Experimental: as §4, §6

[15] = test system: Pseudomonas aeruginosa NBIMCC 3700; format: cell-based; settings: for Inhibition effect, P. aeruginosa 3700: zone of peptide over zone of antibiotic x 100; for Inhibition zone, P. aeruginosa 3700: 20 µL per disc, 24 h
Experimental: as §4, §6

CC[C@H](C)[C@H](NC(=O)CNC(=O)[C@H](CO)NC(=O)[C@H](CC(C)C)NC(=O)[C@@H](NC(=O)[C@H](CCCNC(=N)N)NC(=O)CNC(=O)[C@@H](NC(=O)[C@H](CC(C)C)NC(=O)[C@@H]1CCCN1C(=O)[C@H](CC(C)C)NC(=O)[C@@H](N)Cc1ccccc1)[C@@H](C)CC)C(C)C)C(=O)N[C@@H](CC(C)C)C(N)=O [DTA, FLPLIG-R-VLSGIL-NH2, reference compound] (H-FLPLIGRVLSGIL-NH2)
CC50 [1]: 106 ± 4.18 µM | CC50 at 24 h [1]: 105 ± 4.88 µM | PIF (photo irritation factor) [2]: 1.01 | IC50 [3]: 139 ± 8.36 µM | IC50 [4]: 73.2 ± 3.36 µM | SI (Selectivity Index), MCF-7 [4]: 1.90 | IC50 [5]: 115 ± 4.04 µM | SI (Selectivity Index), MDA-MB-231 [5]: 1.20 | MIC, A. oxydans 9333 [6]: 80 µg/mL (≈ 57.3 µM) | MBC, B. subtilis 3562 ([7]; NBIMCC 3562, 24 h): 320 µg/mL (≈ 229 µM) | MIC, B. subtilis 3562 ([7]; NBIMCC 3562, 24 h): 80 µg/mL (≈ 57.3 µM) | MIC, C. albicans 74 [8]: 320 µg/mL (≈ 229 µM) | MIC, E. coli 8785 [9]: 320 µg/mL (≈ 229 µM) | MBC, P. aeruginosa 3700 [10]: 320 µg/mL (≈ 229 µM)

CC[C@H](C)[C@H](NC(=O)CNC(=O)[C@H](CO)NC(=O)[C@H](CC(C)C)NC(=O)[C@@H](NC(=O)[C@H](CCCN)NC(=O)CNC(=O)[C@@H](NC(=O)[C@H](CC(C)C)NC(=O)[C@@H]1CCCN1C(=O)[C@H](CC(C)C)NC(=O)[C@@H](N)Cc1ccccc1)[C@@H](C)CC)C(C)C)C(=O)N[C@@H](CC(C)C)C(N)=O [DTOrn, FLPLIG-Orn-VLSGIL-NH2] (H-FLPLIG[Orn]VLSGIL-NH2; N-terminus assumed)
CC50 ([1]; cytotoxicity, no irradiation, BALB 3T3 clone A31, Neutral Red uptake, read-out: Mean CC50 ± SD, −Irr): 337 ± 7.09 µM | CC50 at 24 h ([1]; phototoxicity, irradiated 2.4 J/cm^2, BALB 3T3 clone A31, Neutral Red uptake, read-out: Mean CC50 ± SD, +Irr): 345 ± 6.41 µM | PIF (photo irritation factor) ([2]; PIF = CC50 −Irr/CC50 +Irr, PIF < 2 = not phototoxic): 0.98 | IC50 [3]: 306 ± 10.8 µM | IC50 [4]: 196 ± 3.63 µM | SI (Selectivity Index), MCF-7 [4]: 1.56 | IC50 [5]: 303 ± 8.67 µM | SI (Selectivity Index), MDA-MB-231 [5]: 1.01 | Inhibition effect, A. oxydans 9333 ([11]; 1.4 mg/mL): 0.0% | Inhibition effect, A. oxydans 9333 ([11]; 10 mg/mL): 43.7% | Inhibition zone, A. oxydans 9333 ([11]; peptide 1.4 mg/mL): 0.0 mm | Inhibition zone, A. oxydans 9333 ([11]; peptide 10 mg/mL): 8.3 ± 0.6 mm | Inhibition effect, B. subtilis 3562 ([12]; 1.4 mg/mL): 0.0% | Inhibition effect, B. subtilis 3562 ([12]; 10 mg/mL): 32.8% | Inhibition zone, B. subtilis 3562 ([12]; peptide 1.4 mg/mL): 0.0 mm | Inhibition zone, B. subtilis 3562 ([12]; peptide 10 mg/mL): 8.2 ± 0.3 mm | Inhibition zone, C. albicans 74 ([13]; peptide 1.4 mg/mL): 0.0 mm | Inhibition zone, C. albicans 74 ([13]; peptide 10 mg/mL): 0.0 mm | Inhibition zone, E. coli 8785 ([14]; peptide 1.4 mg/mL): 0.0 mm | Inhibition zone, E. coli 8785 ([14]; peptide 10 mg/mL): 0.0 mm | Inhibition effect, P. aeruginosa 3700 ([15]; 1.4 mg/mL): 0.0% | Inhibition effect, P. aeruginosa 3700 ([15]; 10 mg/mL): 70.6% | Inhibition zone, P. aeruginosa 3700 ([15]; peptide 1.4 mg/mL): 0.0 mm | Inhibition zone, P. aeruginosa 3700 ([15]; peptide 10 mg/mL): 11.3 ± 0.6 mm | MIC, A. oxydans 9333 ([6]; broth dilution, 0 to 320 µg/mL, NI = no inhibition monitored): 160 µg/mL (≈ 118 µM) | MBC, A. oxydans 9333 ([6]; plated from concentrations ≥ MIC): 160 µg/mL (≈ 118 µM) | MIC, B. subtilis 3562 ([7]; broth dilution, 0 to 320 µg/mL, 24 h, NI = no inhibition monitored): 160 µg/mL (≈ 118 µM) | MBC, B. subtilis 3562 ([7]; plated from concentrations ≥ MIC, 24 h): 320 µg/mL (≈ 236 µM)
